Test results from ChEMBL document CHEMBL5303573, “Mapping human microbiome drug metabolism by gut bacteria and their genes” (Nature, 2019).

How the values were obtained:
Type in all cases: ADME
Parameters in all cases: dose 2 uM
Conditions in all cases: 2 µM
[1] = target: T1, 3-oxo-5-alpha-steroid 4-dehydrogenase (Bacteroides thetaiotaomicron, UniProt Q8A618); assay: (§1) The drug is tested on Bacteroides thetaiotaomicron strain: VPI-5482 for biotransformation. The drug concentrations were measured before and after a 12-h incubation by liquid-chromatography-coupled mass spectrometry (LC–MS)
T1 sequence (Q8A618 whole entry): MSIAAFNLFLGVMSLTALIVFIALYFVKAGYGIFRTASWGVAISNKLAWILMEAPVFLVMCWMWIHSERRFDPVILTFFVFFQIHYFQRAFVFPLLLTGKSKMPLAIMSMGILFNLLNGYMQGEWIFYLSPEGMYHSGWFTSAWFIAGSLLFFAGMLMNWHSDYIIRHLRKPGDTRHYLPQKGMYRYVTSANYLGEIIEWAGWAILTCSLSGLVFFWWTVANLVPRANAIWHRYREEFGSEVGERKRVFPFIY

[2] = target: T2, Acetyl esterase (Acetylxylosidase) (Bacteroides thetaiotaomicron, UniProt Q8ABF8); assay: as §1
T2 sequence (Q8ABF8 whole entry): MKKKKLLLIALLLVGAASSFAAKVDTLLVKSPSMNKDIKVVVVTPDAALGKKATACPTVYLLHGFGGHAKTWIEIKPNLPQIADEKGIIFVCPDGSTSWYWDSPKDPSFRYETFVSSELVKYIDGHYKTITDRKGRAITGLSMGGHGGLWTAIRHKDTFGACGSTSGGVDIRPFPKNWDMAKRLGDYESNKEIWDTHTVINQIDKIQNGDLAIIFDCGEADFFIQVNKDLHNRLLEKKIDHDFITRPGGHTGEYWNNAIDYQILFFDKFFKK

Endoglucanase E (EGE) = target: T3, Endoglucanase E (EGE) (Bacteroides thetaiotaomicron, UniProt Q8AAL9); assay: as §1
T3 sequence (Q8AAL9 whole entry): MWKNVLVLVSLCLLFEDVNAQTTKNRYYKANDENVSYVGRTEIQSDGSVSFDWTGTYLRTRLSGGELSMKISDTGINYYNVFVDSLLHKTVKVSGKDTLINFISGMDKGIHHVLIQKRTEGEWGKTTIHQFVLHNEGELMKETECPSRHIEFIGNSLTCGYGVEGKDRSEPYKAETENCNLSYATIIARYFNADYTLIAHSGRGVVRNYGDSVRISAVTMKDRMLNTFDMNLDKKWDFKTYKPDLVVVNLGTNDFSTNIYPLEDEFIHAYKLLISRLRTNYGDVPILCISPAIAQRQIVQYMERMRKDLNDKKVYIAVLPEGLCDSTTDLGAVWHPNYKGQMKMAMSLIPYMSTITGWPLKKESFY

[3] = target: T4, Lipolytic enzyme, G-D-S-L family (Bacteroides thetaiotaomicron, UniProt Q8A0C5); assay: as §1
T4 sequence (Q8A0C5 whole entry): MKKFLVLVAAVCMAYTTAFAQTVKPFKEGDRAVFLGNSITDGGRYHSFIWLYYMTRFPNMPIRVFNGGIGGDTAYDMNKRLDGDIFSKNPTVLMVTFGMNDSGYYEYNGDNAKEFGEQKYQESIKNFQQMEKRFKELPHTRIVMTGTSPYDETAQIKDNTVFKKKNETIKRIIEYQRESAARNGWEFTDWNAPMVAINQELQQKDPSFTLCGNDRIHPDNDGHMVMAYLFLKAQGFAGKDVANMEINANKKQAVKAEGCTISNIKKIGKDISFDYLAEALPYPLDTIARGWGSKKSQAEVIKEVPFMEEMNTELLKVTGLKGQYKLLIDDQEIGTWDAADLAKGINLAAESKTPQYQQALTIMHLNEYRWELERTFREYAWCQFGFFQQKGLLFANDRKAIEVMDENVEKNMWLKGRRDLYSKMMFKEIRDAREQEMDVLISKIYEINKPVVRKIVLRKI

Nitroreductase = target: T5, Nitroreductase (Bacteroides thetaiotaomicron, UniProt Q8A911); assay: as §1
T5 sequence (Q8A911 whole entry): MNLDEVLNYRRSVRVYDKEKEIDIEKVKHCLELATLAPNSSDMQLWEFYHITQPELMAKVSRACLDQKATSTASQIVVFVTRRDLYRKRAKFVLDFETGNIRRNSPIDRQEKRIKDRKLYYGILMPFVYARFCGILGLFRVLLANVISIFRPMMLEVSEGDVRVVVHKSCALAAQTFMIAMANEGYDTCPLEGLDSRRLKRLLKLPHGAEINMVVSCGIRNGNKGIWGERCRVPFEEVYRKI

Xylanase = target: T6, Xylanase (Bacteroides thetaiotaomicron, UniProt Q8A8H5); assay: as §1
T6 sequence (Q8A8H5 whole entry): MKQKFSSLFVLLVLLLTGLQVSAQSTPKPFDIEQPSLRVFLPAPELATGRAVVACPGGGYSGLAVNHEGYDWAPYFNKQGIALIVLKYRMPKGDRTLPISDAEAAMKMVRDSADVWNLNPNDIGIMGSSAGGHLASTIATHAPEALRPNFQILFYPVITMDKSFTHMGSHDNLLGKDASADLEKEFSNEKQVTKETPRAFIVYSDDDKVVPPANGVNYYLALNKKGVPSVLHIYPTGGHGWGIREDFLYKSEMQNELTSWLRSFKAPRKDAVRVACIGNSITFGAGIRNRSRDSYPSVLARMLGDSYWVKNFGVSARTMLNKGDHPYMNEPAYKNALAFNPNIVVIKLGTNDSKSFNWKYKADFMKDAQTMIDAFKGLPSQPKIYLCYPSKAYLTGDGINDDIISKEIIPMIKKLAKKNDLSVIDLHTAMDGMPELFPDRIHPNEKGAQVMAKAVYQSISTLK

GDSL-like protein = target: T7, GDSL-like protein (Collinsella aerofaciens, UniProt A4E7D0); assay: The drug is tested on Collinsella aerofaciens strain: ATCC25986 for biotransformation. The drug concentrations were measured before and after a 12-h incubation by liquid-chromatography-coupled mass spectrometry (LC–MS)
T7 sequence (A4E7D0 whole entry): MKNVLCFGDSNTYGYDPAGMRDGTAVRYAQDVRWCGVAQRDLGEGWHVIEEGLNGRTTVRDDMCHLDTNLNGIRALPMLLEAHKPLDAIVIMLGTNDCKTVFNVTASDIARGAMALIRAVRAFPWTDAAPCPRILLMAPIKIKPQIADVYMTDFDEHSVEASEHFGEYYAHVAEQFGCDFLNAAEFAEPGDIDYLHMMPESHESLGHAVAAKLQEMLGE

Compound	Bacterial Biotransformation [1]	Bacterial Biotransformation [2]	Bacterial Biotransformation (Endoglucanase E (EGE))	Bacterial Biotransformation [3]	Bacterial Biotransformation (Nitroreductase)	Bacterial Biotransformation (Xylanase)	Bacterial Biotransformation (GDSL-like protein)
CC(=O)OCC(=O)[C@@]1(OC(C)=O)[C@@H](C)C[C@H]2[C@@H]3C[C@H](F)C4=CC(=O)C=C[C@]4(C)[C@@]3(F)[C@@H](O)C[C@@]21C [DIFLORASONE DIACETATE]	Compound NOT metabolized	Compound NOT metabolized	Compound NOT metabolized	Compound metabolized	Compound NOT metabolized	Compound NOT metabolized	Compound NOT metabolized
C#C[C@]1(O)CC[C@H]2[C@@H]3CCC4=CC(=O)CC[C@@H]4[C@H]3CC[C@@]21CC [LEVONORGESTREL]	Compound metabolized	Compound NOT metabolized	Compound NOT metabolized	Compound NOT metabolized	Compound NOT metabolized	Compound NOT metabolized	Compound NOT metabolized
COc1ccc([C@@H]2Sc3ccccc3N(CCN(C)C)C(=O)[C@@H]2OC(C)=O)cc1 [DILTIAZEM]	Compound NOT metabolized	Compound NOT metabolized	Compound NOT metabolized	Compound metabolized	Compound NOT metabolized	Compound NOT metabolized	Compound NOT metabolized
N#Cc1ccc2c(c1)N(CCCN1CCC(O)CC1)c1ccccc1S2 [PERICIAZINE]	Compound NOT metabolized	Compound NOT metabolized	Compound NOT metabolized	Compound NOT metabolized	Compound NOT metabolized	Compound NOT metabolized	Compound NOT metabolized
CC(=O)OCC(CCn1cnc2cnc(N)nc21)COC(C)=O [FAMCICLOVIR]	Compound NOT metabolized	Compound metabolized	Compound NOT metabolized	Compound metabolized	Compound NOT metabolized	Compound NOT metabolized	Compound NOT metabolized
C#C[C@]1(OC(C)=O)CC[C@H]2[C@@H]3CCC4=CC(=O)CC[C@@H]4[C@H]3CC[C@@]21C [NORETHINDRONE ACETATE]	Compound metabolized	Compound NOT metabolized	Compound NOT metabolized	Compound NOT metabolized	Compound NOT metabolized	Compound NOT metabolized	Compound NOT metabolized
